Experimental data from patent US20150174158A1, “[…] NITRIC OXIDE FOR TREATING RESPIRATORY DISEASES” (Advanced Inhalation Therapies (AIT) Ltd., priority 2012, published 2015).

Assays:
[1] = Phase I open label safety study of intermittent 160 ppm gNO inhalation: adverse events, vital signs, oxygenation, NO2; type: in vivo, human
Text: 10 healthy adult volunteer subjects (5 males, 5 females), aged 20 to 62 years, were enrolled in the study after screening their medical history, a physical examination, pulmonary function tests and blood values. Exclusion criteria included individuals less than 19 years of age, pregnant females and unwilling to practice birth control during the study, diagnosed with pulmonary disease, epistaxis, hemoptysis, methemoglobinemia, organ transplant recipient or receiving antibiotic therapy.
(§1) After obtaining informed consent, treatment was initiated within 5 days of enrollment. Subjects were housed in a hospital ward and received 160 ppm gNO for 30 minutes every four hours (Q4h), five times a day, for five consecutive days by inhalation. Subjects returned for follow-up evaluations 3, 7 and 21 days after the final gNO administration. Subject safety was determined by monitoring vital signs, methemoglobin levels, lung function, blood chemistry, hematology, prothrombin time, inflammatory cytokine/chemokines levels and endothelial activation. These parameters were compared to baseline and at various time-points during and after gNO administration.
Subjects were administered gNO through a modified disposable mouthpiece to maximize mixing. Inspiration was spontaneously initiated by the subject from a conventional intermittent positive pressure breathing respirator (Mark-7, Carefusion, USA) in fixed flow mode delivering 48 liters per minute (LPM). Flows of gas were verified with a calibrated mass flow meter (TSI, USA). Gaseous nitric oxide (gNO, obtained at INOmax, Ikaria, USA) at a concentration of 800 ppm delivered at a flow of 12 LPM was titrated into a distal delivery port on the mouth piece connected to the respirator during inspiratory phase only (pressure switch). The Mark 7 respirator was supplied by an air/oxygen blender (Bird Sentry, Carefusion, USA) set to deliver 26% oxygen.
The levels of gNO, NO2, O2 and methemoglobin were monitored during the administration of gNO. […] Inspiratory NO, NO2 and O2 levels were continuously monitored by sampling from the mouthpiece sample port located about 6 millimeters from the mouth of the subject with an AeroNOx (Pulmonox, AB, Canada) NO, NO2 and O2 electrochemical analyzer. Delivery safety was determined by the number of occasions that NO2 exceeded 5 ppm, gNO exceeding 10% variation and O2 dropping below 20% during gNO administration. […]
General medical examinations were performed by a pulmonary physician on screening and on days 8, 12 and 26 to obtain oxygenation and vital sign measurements. […] Oxygenation was measured with a pulse oximeter (Rad 57, Masimo Corporation, USA) which was used according to manufacturer's guidelines to measure functional oxygen saturation of arterial hemoglobin (SpO2) and heart rate. These parameters were measured continuously during every gNO administration and for 3.5 hours after the first treatment of the day. Cardiovascular status was determined by monitoring heart rate, blood pressure, respiratory rate and temperature. Values were recorded prior to the start of each gNO administration, following a 5 minute rest. During treatments, vital signs (except temperature) were also performed 15 minutes after the start of the treatment and at the end of gNO administration and recorded. After the first treatment each day, vital signs were recorded at every 30 minutes until the start of the second gNO administration of the day.

[2] = Phase I safety study: serum nitrite/nitrate by Griess reagent; type: in vivo, human; settings: 160 ppm gNO 30 min, 5 times a day, 5 days
Method: as §1
These parameters were measured continuously during every gNO administration course and for 3.5 hours after the first treatment of the day. Daily serum samples were collected and frozen at −80° C. and the serum […] level was measured using the Griess reagent.

P. aeruginosa (ATCC) = settings: 200 ppm gNO; saline; cited from earlier work
Serracia sp. = settings: 200 ppm gNO; saline; cited from earlier work
S. aureus (Clinical) = settings: 200 ppm gNO; saline; cited from earlier work
Klebsiella sp. #2 = settings: 200 ppm gNO; saline; cited from earlier work
S. maltophilia = settings: 200 ppm gNO; saline; cited from earlier work
E. Coli = settings: 200 ppm gNO; saline; cited from earlier work
Group B Streptococci = settings: 200 ppm gNO; saline; cited from earlier work
[3] = tested on: all microorganisms tested; settings: 200 ppm gNO, cited from earlier work
[4] = tested on: P. aeruginosa and S. aureus; settings: cited from earlier work
[5] = tested on: influenza A/victoria/H3N2; settings: 160 ppm gNO, cited from earlier work
[6] = tested on: highly pathogenic Avian Influenza H7N3; settings: cited from earlier work
[7] = tested on: five planktonic species of methicillin resistant S. aureous (MRSA); settings: 1,600 ppm hours of gNO; cited from earlier work
[8] = tested on: chronic, non-healing wound; settings: topical 200 ppm gNO, within the first three days; cited from earlier work

[N]=O [gNO, nitric oxide]
minor adverse events ([1]; 160 ppm gNO 30 min, 5 times a day, 5 days, 10 healthy adults): Three minor adverse events were reported | significant adverse events ([1]; 160 ppm gNO 30 min, 5 times a day, 5 days, 10 healthy adults, 250 administrations): no significant adverse events were observed | vital signs ([1]; during and after gNO administration, 160 ppm): remained within normal limits | lowest observed SpO2 ([1]; during or after 160 ppm gNO administration): 93% | mean NO2 level during the treatments ([1]; inspired gas at mouthpiece, 160 ppm gNO, 95% confidence level 2.17-2.47): 2.32 ppm | serum nitrite/nitrate levels vs baseline [2]: no significant differences | LD100 (P. aeruginosa (ATCC)): 3 h | Latent Period (P. aeruginosa (ATCC)): 1 h | −2.5 Log10 (P. aeruginosa (ATCC)): 2.1 hours | LD100 (Serracia sp.): 6 h | Latent Period (Serracia sp.): 4 h | −2.5 Log10 (Serracia sp.): 4.9 hours | LD100 (S. aureus (Clinical)): 4 h | Latent Period (S. aureus (Clinical)): 3 h | −2.5 Log10 (S. aureus (Clinical)): 3.7 hours | LD100 (Klebsiella sp. #2): 5 h | Latent Period (Klebsiella sp. #2): 2 h | −2.5 Log10 (Klebsiella sp. #2): 4.1 hours | LD100 (S. maltophilia): 4 h | Latent Period (S. maltophilia): 2 h | −2.5 Log10 (S. maltophilia): 2.8 hours | LD100 (E. Coli): 5 h | Latent Period (E. Coli): 3 h | −2.5 Log10 (E. Coli): 4.2 hours | LD100 (Group B Streptococci): 2 h | Latent Period (Group B Streptococci): 1 h | −2.5 Log10 (Group B Streptococci): 1.5 hours | bactericidal effect ([3]; all microorganisms tested): complete bactericidal effect | reduction in CFU/mL ([3]; every bacteria challenged): ≥ 3 login CFU/mL | survival (downward bactericidal trend) ([4]; 50-160 ppm gNO vs medical air, agar plates): 5-10% | time required to achieve >90% reduction of colony formation ([4]; gNO greater than 120 ppm): 8 to 12 h | reduction of colony formation ([4]; levels of gNO greater than 120 ppm, agar plates): greater than 90% | infectivity (plaque formation) [5]: capable of reducing the infectivity | anti-viral effect, intermittent vs single exposure ([5]; three 30 minute treatments Q4h vs one 30 minute dose): more evident in the intermittent form of exposure | infectivity (plaque formation) [6]: capable of reducing the infectivity | population of planktonic MRSA strains [7]: A reduction in the population | biofilm presence [8]: no longer visibly present
